From patent US9457081B2, “Combination therapy using c-Met inhibitor and beta-catenin inhibitor” (Samsung Electronics Co., Ltd., priority 2013, dated 2016)

Assays:
Format in all cases: cell-based
HCC1954 cells = assay: HCC1954 cell proliferation with beta-catenin siRNA reverse transfection; settings: c-Met inhibitor treated alone (L3-1Y/IgG2 0-2 μg/ml; crizotinib 0-20 nM), 72 hours
From the text: (§1) To confirm the effect of co-administration of c-Met inhibitor (anti-c-Met antibody L3-1Y/IgG2 or crizotinib) and beta-catenin siRNA in a cancer cell on which a c-Met inhibitor has no effect when administered alone, a breast cancer cell line HCC1954 (ATCC, CRL 2338) and a kidney cancer cell line Caki-1 (ATCC) were used for assaying the effect of the co-administration.
(§2) In particular, in 96-well plate, beta-catenin siRNA (Dharmacon, SMARTpool) was subjected to reverse transfection into 5000 cells/well of HCC1954 cell or Caki-1 cell and the cells were incubated (medium: 10% FBS in RPMI 1640 (GIBCO), incubation temperature: 37° C.). […] The number of the cells was counted through luminescence signal, and the luminescence signal was recorded using Envision 2104 Multi-label Reader (Perkin Elmer).

HT-29 cells = assay: HT-29 cell proliferation / viability (CellTiter Glo luminescence); settings: crizotinib administered alone, 0-20 nM, 72 hours
Procedure: To confirm the effect of co-administration in a colon cancer cell on which an anti-c-Met antibody has no effect when administered alone, HT-29 (ATCC, HTB-38) cells were used for assaying the effect of co-administration on cell proliferation.
In particular, 5000 cells of HT-29 cell were incubated in 96-well plate (medium: 10% FBS in RPMI 1640 (GIBCO), incubation temperature: 37° C.). 24 hours after, the incubated cells were treated with L3-1Y/IgG2 prepared in reference example or anti-c-Met antibody 1 (heavy chain: SEQ ID NO: 109; light chain: SEQ ID NO: 110) and beta-catenin inhibitor XAV-939 (Selleck chemical). In particular, 72 hours after the antibody treatment, 100 uL of CellTiter Glo solution (Promega, G7572) was added to each well and left at room temperature for 30 minutes. The number of the cells was counted through luminescence signal, and the luminescence signal was recorded using Envision 2104 Multi-label Reader (Perkin Elmer). In the experiment, L3-1Y/IgG2 was used at the amount of 0, 0.016, 0.08, 0.4, and 2 μg/ml, and XAV-939 was used at the fixed amount of 5 uM. […]
In particular, 5000 cells of HT-29 cell were incubated in 96-well plate (medium: 10% FBS in RPMI 1640 (GIBCO), incubation temperature: 37° C.). […] The number of the cells was counted through luminescence signal, and the luminescence signal was recorded using Envision 2104 Multi-label Reader (Perkin Elmer). […]

Lovo cells = assay: Lovo cell proliferation (CellTiter Glo luminescence); settings: Lovo (FIG. 5); crizotinib administered alone; 72 hours
Procedure: To confirm the effect of co-administration in a colon cancer cell on which a c-Met inhibitor has no effect when administered alone, Lovo (ATCC, CCL-229) cells were used for assaying the effect of co-administration on cell proliferation.
In particular, 5000 cells of Lovo cell were incubated in 96-well plate (medium: 10% FBS in RPMI 1640 (GIBCO), incubation temperature: 37° C.). 24 hours after, the incubated cells were treated with a small molecular compound inhibiting c-Met, crizotinib (Selleck chemical) and beta-catenin inhibitor XAV-939 (Selleck chemical). In particular, 72 hours after the antibody treatment, 100 uL of CellTiter Glo solution (Promega, G7572) was added to each well and left at room temperature for 30 minutes. The number of the cells was counted through luminescence signal, and the luminescence signal was recorded using Envision 2104 Multi-label Reader (Perkin Elmer). In the experiment, L3-1Y/IgG2 was used at the amount of 0, 0.016, 0.08, 0.4, and 2 μg/ml, and XAV-939 was used at the fixed amount of 5 uM.

Caki-1 cells = assay: Caki-1 cell proliferation with beta-catenin siRNA reverse transfection; settings: c-Met inhibitor treated alone (L3-1Y/IgG2 0-2 μg/ml; crizotinib 0-20 nM), 72 hours
From the text: as §1, §2

## C[C@@H](Oc1cc(-c2cnn(C3CCNCC3)c2)cnc1N)c1c(Cl)ccc(F)c1Cl [crizotinib, 3-[(1R)-1-(2,6-dichloro-3-fluorophenyl)ethoxy]-5-(1-piperidin-4-ylpyrazol-4-yl)pyridin-2-amine, reference compound]
HCC1954 cells
  cell proliferation inhibition effect: no cell proliferation inhibition effect is observed
HT-29 cells
  cell proliferation inhibition effect: no cell proliferation inhibition effect is observed
Lovo cells
  cell proliferation inhibition effect: no cell proliferation inhibition effect is observed
Caki-1 cells
  cell proliferation inhibition effect: no cell proliferation inhibition effect is observed
